We go through 14 compounds from PMC6930675, “Discovery and Characterisation of Dual Inhibitors of Tryptophan 2,3-Dioxygenase (TDO2) and Indoleamine 2,3-Dioxygenase 1 (IDO1) Using Virtual Screening” (Molecules, 2019).

One series has as its system TDO2. Also on record: method as in PMID 27096472, PMID 28105265, PMID 26348881, PMID 22616902. The settings on record: cited from earlier work; for IC50: test library, read-out: IC50 (TDO2 active compounds of the test library).
Another series has as its target T1, IDO1 (SKOV3 cells) (Homo sapiens, UniProt P14902).
T1 construct: identify cell lines endogenously expressing only IDO1, only TDO2, and both enzymes simultaneously; endogenous in cells; host or cells: SKOV3 ovarian cancer cell line
Kind of series: Cell based kynurenine assay in SKOV3 ovarian line (IDO1 expressor). The settings on record: for IC50: SKOV3 (IDO1), 18 h, read-out: IC50, inhibition of kynurenine secretion. As to the method: (§1) Breast cancer cell lines MCF7, MDA-MB-231, BT549, Hs578T; ovarian cell line SKOV3; glioblastoma cell line A172 and lung cancer cell line H460 were grown in α-MEMGibco, Grand Island, NY, USA; ThermoFisher catalogue number 12000022) containing 5% foetal calf serum (Moregate Biotech, Hamilton, New Zealand), insulin/transferrin/selenium supplement (Roche, Ref-11074547001), added according to the manufacturer’s instructions, as well as penicillin/streptomycin (100 U/mL and 100 μg/mL, respectively). The amount of kynurenine produced by the cells was measured as described previously. Briefly, a well of a 96-well plate received 3.7 × 10^4 cells which were subsequently cultured with the addition of 50 μM ([…] and SKOV3 cells) or 100 μM (A172 cells) of L-tryptophan (Sigma-Aldrich, St Louis, MO, USA) with or without test compounds at 37 °C, 5% CO2 for 18 h. The cell number seeded was optimised to produce levels of kynurenine <40% of initial tryptophan to avoid tryptophan starvation and to ensure steady-state IDO1/TDO2 kinetics. Next, the culture supernatants were transferred into a fresh 96-well plate, incubated with trichloroacetic acid (10% final concentration) for 20 min at 60 °C to release kynurenine from the cells and precipitate proteins. After spinning the plates for 20 min at 2500 g, the supernatants were mixed at a 1:1 ratio with 4-(dimethylamino)benzaldehyde (20 mg/mL in acetic acid; Sigma) and the absorbance was read at 480 nm on an EnSpire 2300 Multimode Plate Reader (Perkin-Elmer, Singapore, Singapore). The remaining cells in the 96-well plate received a well-established indicator of cellular metabolic activity WST-1 (Roche Diagnostics Cat No 05015944, Basel, Switzerland; 10% diluted in culture media). After 1 h of incubation at 37 °C, the absorbance was measured at 440 nm. WST-1 is reduced on the outer membrane of viable cells to a soluble formazan by reducing equivalents such as NAD(P)H. The absorbance measured at 440 nm indicates the number of metabolically active cells in the culture and represents a surrogate marker of cell viability.
All experiments were repeated independently at least twice in technical quadruplicates. Calculations and graph plotting were performed in Prism (v8, 2018; GraphPad software, San Diego, CA, USA) and R computing environment (v3.5.3, 2019, 64-bit, Vienna, Austria). IC50 of the compounds in cellular enzymatic activity compared to untreated control cells was determined by fitting data to an equation f(x) = A + B/(1 + (IC50/X)^HILL) in Prism; where A is the minimum and B is the maximum of the curve, HILL is the slope of the curve and X is the compound concentration.

Series [1] has as its system IDO1/TDO2 (SKOV3 and BT549 cell lines). Kind of series: Single-concentration test of virtual hits for inhibition of kynurenine secretion in SKOV3 and BT549. The settings on record: 20 µM. The class given is cell-based, human. As to the method: as §1, with “Next, the culture supernatants were transferred into a fresh 96-well plate, incubated with trichloroacetic acid (10% final concentration) for 20 min at 60 °C to release kynurenine from the cells and precipitate proteins.” left out, “The remaining cells in the 96-well plate received a well-established indicator of cellular metabolic activity WST-1 (Roche Diagnostics Cat No 05015944, Basel, Switzerland; 10% diluted in culture media).” left out
All experiments were repeated independently at least twice in technical quadruplicates. […] IC50 of the compounds in cellular enzymatic activity compared to untreated control cells was determined by fitting data to an equation f(x) = A + B/(1 + (IC50/X)^HILL) in Prism; where A is the minimum and B is the maximum of the curve, HILL is the slope of the curve and X is the compound concentration.

The target in another series is T2, TDO2 (A172 cells) (Homo sapiens, UniProt P48775).
T2 construct: identify cell lines endogenously expressing only IDO1, only TDO2, and both enzymes simultaneously; endogenous in cells; host or cells: A172 glioblastoma cell line
T2 sequence (P48775 whole entry): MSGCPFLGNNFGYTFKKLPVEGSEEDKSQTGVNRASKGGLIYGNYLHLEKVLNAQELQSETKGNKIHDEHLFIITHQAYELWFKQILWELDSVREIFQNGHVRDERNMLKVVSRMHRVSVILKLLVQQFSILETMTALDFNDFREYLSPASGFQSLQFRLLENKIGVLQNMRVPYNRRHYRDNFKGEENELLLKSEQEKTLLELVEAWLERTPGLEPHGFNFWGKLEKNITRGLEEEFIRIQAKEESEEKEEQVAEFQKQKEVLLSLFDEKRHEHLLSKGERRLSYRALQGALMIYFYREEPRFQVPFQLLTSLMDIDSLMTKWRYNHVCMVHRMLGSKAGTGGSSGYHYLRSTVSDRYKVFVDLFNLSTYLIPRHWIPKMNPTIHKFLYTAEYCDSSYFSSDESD
Nature of the series: Cell based kynurenine assay in A172 glioblastoma line (TDO2 expressor). The settings on record: 18 h, read-out: IC50, inhibition of kynurenine secretion. On the procedure:
(§2) Breast cancer cell lines MCF7, MDA-MB-231, BT549, Hs578T; ovarian cell line SKOV3; glioblastoma cell line A172 and lung cancer cell line H460 were grown in α-MEMGibco, Grand Island, NY, USA; ThermoFisher catalogue number 12000022) containing 5% foetal calf serum (Moregate Biotech, Hamilton, New Zealand), insulin/transferrin/selenium supplement (Roche, Ref-11074547001), added according to the manufacturer’s instructions, as well as penicillin/streptomycin (100 U/mL and 100 μg/mL, respectively). The amount of kynurenine produced by the cells was measured as described previously. […] After spinning the plates for 20 min at 2500 g, the supernatants were mixed at a 1:1 ratio with 4-(dimethylamino)benzaldehyde (20 mg/mL in acetic acid; Sigma) and the absorbance was read at 480 nm on an EnSpire 2300 Multimode Plate Reader (Perkin-Elmer, Singapore, Singapore). […] After 1 h of incubation at 37 °C, the absorbance was measured at 440 nm. WST-1 is reduced on the outer membrane of viable cells to a soluble formazan by reducing equivalents such as NAD(P)H. The absorbance measured at 440 nm indicates the number of metabolically active cells in the culture and represents a surrogate marker of cell viability. […]

The next series relates to IDO1/TDO2 (BT549 cells). Kind of series: Cell based kynurenine assay in BT549 breast line (dual IDO1/TDO2 expressor). Also noted: species or system human. On the procedure: as §2
The test system of series [2] is BT549 and SKOV3 cell lines. Kind of series: WST-1 assay of cellular metabolic activity / cell viability. The settings on record: 20 µM; asterisks in Figure 6A. The series is classed as cell-based, human. As to the method:
Breast cancer cell lines MCF7, MDA-MB-231, BT549, Hs578T; ovarian cell line SKOV3; glioblastoma cell line A172 and lung cancer cell line H460 were grown in α-MEMGibco, Grand Island, NY, USA; ThermoFisher catalogue number 12000022) containing 5% foetal calf serum (Moregate Biotech, Hamilton, New Zealand), insulin/transferrin/selenium supplement (Roche, Ref-11074547001), added according to the manufacturer’s instructions, as well as penicillin/streptomycin (100 U/mL and 100 μg/mL, respectively). The amount of kynurenine produced by the cells was measured as described previously. […] After spinning the plates for 20 min at 2500 g, the supernatants were mixed at a 1:1 ratio with 4-(dimethylamino)benzaldehyde (20 mg/mL in acetic acid; Sigma) and the absorbance was read at 480 nm on an EnSpire 2300 Multimode Plate Reader (Perkin-Elmer, Singapore, Singapore). […] After 1 h of incubation at 37 °C, the absorbance was measured at 440 nm. WST-1 is reduced on the outer membrane of viable cells to a soluble formazan by reducing equivalents such as NAD(P)H. The absorbance measured at 440 nm indicates the number of metabolically active cells in the culture and represents a surrogate marker of cell viability.

Values joined by “and” are separate entries in the source; they are usually repeats but may differ in a detail not shown here. Equal entries are not always repeated.

T1 sequence (P14902 whole entry): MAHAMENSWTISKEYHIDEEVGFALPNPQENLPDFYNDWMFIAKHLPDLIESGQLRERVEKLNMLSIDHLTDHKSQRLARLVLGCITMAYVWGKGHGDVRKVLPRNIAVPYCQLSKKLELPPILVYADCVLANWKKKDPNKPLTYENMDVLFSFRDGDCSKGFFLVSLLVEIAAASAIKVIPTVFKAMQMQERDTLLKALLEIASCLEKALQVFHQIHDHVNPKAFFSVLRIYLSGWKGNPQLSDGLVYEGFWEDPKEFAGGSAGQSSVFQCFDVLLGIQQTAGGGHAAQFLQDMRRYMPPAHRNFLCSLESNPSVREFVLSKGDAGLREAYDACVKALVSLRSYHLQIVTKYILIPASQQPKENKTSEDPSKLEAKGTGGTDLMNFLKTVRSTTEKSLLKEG

On to `CC1c2cc(-c3c[nH]c4cc(F)ccc34)ccc2S(=O)(=O)N1CC(N)=O` (centres unmarked) [1a], for which, in the series with TDO2, the IC50 is 26 nM.
On to `C[C@H]1NS(=O)(=O)c2ccc(-c3c[nH]c4cc(F)ccc34)cc21` [1b], for which the IC50 with TDO2 was 27 nM.
As to `O=S1(=O)NC(CO)c2cc(-c3c[nH]c4cc(F)ccc34)ccc21` (centres unmarked) [1d], the IC50 in the series on TDO2 was 43 nM.
On to `O=C1c2ccccc2C(=O)c2c1nnn2Cc1cccc(C(=O)N2CCOCC2)c1` [1e], for which the IC50 in the series with TDO2 is 48 nM.
For `Nc1cccc(-c2c[nH]nn2)c1` [2a], the “Activity class in the TDO2 test library” value in the series with TDO2 is “inactive”.
`Brc1cccc(-c2c[nH]nn2)c1` [2b]: the “Activity class in the TDO2 test library” value in the series with TDO2 was “inactive”.
Regarding `FC(F)(F)c1cc(-c2c[nH]nn2)ccn1` [2c], in the series on TDO2, the “Activity class in the TDO2 test library” value was “inactive”.
Turning to `O=C1Nc2ccccc2/C1=N\Nc1nc2ccccc2s1` [2d], in the series with TDO2, the “Activity class in the TDO2 test library” value was “inactive”.
Turning to `O=C(CC1(O)C(=O)Nc2c(Cl)cc(Cl)cc21)c1ccc(Cl)cc1` (centres unmarked) [2e], in the series with TDO2, the “Activity class in the TDO2 test library” value is “inactive”.
In the case of `Nc1nonc1/C(=N/O)Nc1ccc(F)c(Cl)c1` [5L], the “Inhibition of kynurenine production, in words” value on IDO1 (SKOV3 cells) (SKOV3, at 1 µM) is listed as “completely inhibited”.
For the compound `Fc1ccc2c(/C=C\c3cccnc3)c[nH]c2c1` [680C91], the “Effect on kynurenine production, in words” value on IDO1 (SKOV3 cells) (SKOV3) is “barely affected”.
`COc1ccccc1C(=O)CC(=O)c1ccc(C)cc1O` [TD12]: in series [1], the “Inhibition of kynurenine secretion” value was 50% ± 20.
Consider `Cc1ccc(C(=O)CC(=O)c2ccccc2OC(C)C)c(O)c1` [TD18], for which the IC50 on IDO1 (SKOV3 cells) turned out to be 28.9 µM. In addition, the “Inhibition of kynurenine secretion” value in series [1] is on record as 50% ± 20.
On to `CC1=C(CC(=O)c2sccc2Br)C(=O)c2ccccc2C1=O` [TD34], for which the IC50 on TDO2 (A172 cells) was 37.7 µM and ~40 µM; at IDO1 (SKOV3 cells), 47.3 µM and ~40 µM; in the series with IDO1/TDO2 (BT549 cells) (BT549 (IDO1/TDO2), 18 h, read-out: IC50, inhibition of kynurenine secretion) it was 3.42 µM. Moreover, in series [1], the “Inhibition of kynurenine production, in words” value is on record as “inhibited kynurenine production”. Further, the “Fold higher potency in BT549 than in A172 and SKOV3” value in the series with IDO1/TDO2 (BT549 cells) (BT549 versus A172 / SKOV3) was “more than 10 fold”. Further, the “Toxicity to the BT549 and SKOV3 cell lines” value in series [2] was “absence of cell toxicity”.
